Measurements reported in patent US8048874B2, “Beta-lactamyl phenylalanine, cysteine, and serine vasopressin antagonists” (Azevan Pharmaceuticals, Inc., priority 2005, dated 2011).

How the values were obtained:
[1] = target: T1, human V1a receptors (Homo sapiens, UniProt P37288); assay: Human vasopressin V1a cell-based receptor binding assay (3H-AVP competition)
T1 construct: expressed in transfected cells; host or cells: CHO cells
Procedure: Human or rat vasopression V1a, V1b, and/or V2 cell-based receptor binding assay. The V1a, V1b, and/or V2 cell lines (cells expressing either the human or rat V1a, V1b, and/or V2 receptors) were grown in alpha-MEM medium supplemented with 10% fetal bovine serum and 250 ug/ml G418 (Gibco, Grand Island, N.Y.) in 75 cm^2 flask. For competitive binding assay, hV1b cells were dissociated with enzyme-free, PBS based cell dissociation solution (Specialty Media, Phillipursburg, N.J.), following the manufacturer's protocol. Cells were plated into 12-well culture plates at a rate of one flask to 18 plates (rate should be adjusted according to the extent of confluency), and maintained in culture for 2-3 days. Culture medium was then removed, cells were washed once with 2 ml binding buffer (25 mM Hepes, 0.25% BSA, 1×DMEM, PH=7.0) at room temperature. To each well, 990 ul binding buffer containing 1 nM ^3H-AVP was added, and followed by the addition of 10 ul series diluted testing compounds or cold AVP, all dissolved in DMSO. […] Cells were incubated for 30 min at 37° C. in a moisturized incubator. Assay mixture was then removed and each well was washed three times with PBS (pH=7.4). […] Samples were counted in a liquid scintillation counter (Beckman LS3801). IC50 and Ki values were calculated using Prism Curve fitting software. […]

[2] = target: T2, human V1b receptors (Homo sapiens, UniProt P47901); assay: Human vasopressin V1b cell-based receptor binding assay (3H-AVP competition); conditions: cells expressing human V1b receptor, 1 nM 3H-AVP
T2 construct: expressed in transfected cells
T2 sequence (P47901 1-424): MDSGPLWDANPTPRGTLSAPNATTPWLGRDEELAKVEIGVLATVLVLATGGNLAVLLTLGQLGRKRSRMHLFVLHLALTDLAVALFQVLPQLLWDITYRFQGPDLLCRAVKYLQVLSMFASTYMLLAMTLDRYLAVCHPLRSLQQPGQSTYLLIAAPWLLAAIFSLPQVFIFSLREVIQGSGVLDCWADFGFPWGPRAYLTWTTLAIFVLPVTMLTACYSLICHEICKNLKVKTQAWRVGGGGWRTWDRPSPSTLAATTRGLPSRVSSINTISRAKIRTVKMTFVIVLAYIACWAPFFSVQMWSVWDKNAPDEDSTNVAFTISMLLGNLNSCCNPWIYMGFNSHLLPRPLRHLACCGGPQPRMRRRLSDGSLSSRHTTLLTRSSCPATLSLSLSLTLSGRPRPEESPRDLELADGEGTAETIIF
Excerpt: Human vasopression VIb receptor-expressing cells. Human vasopressin receptor 1B (HV1B) cDNA (see, Lolait et al., “Extrapituitary expression of the rat V1b vasopressin receptor gene” Proc. Natl. Acad. Sci. USA. 92:6783-7 (1995); de Keyzer et al., “Cloning and characterization of the human V3(V1b) pituitary vasopressin receptor” FEBS Lett. 356:215-20 (1994); Sugimoto et al., “Molecular cloning and functional expression of a cDNA encoding the human V1b vasopressin receptor” J. Biol. Chem. 269:27088-92 (1994)) was inserted into a mammalian cell expression vector PCI-neo (Promega) at EcoR1 site. The recombinant plasmid carrying HV1B cDNA was identified from transformed E. Coli clones and used for the transfection of Chinese hamster ovary cell (CHO-K1, ATCC). Two micrograms of HV1B receptor DNA was introduced into 10^5 CHO cells cultured in 6-well plate, using Fugene-6 mediated transfection technique (Boehringer Mannheim). Twenty-four hrs post transfection, Cells were then cultured under selection of G-418 (0.25 mg/ml) supplemented to the culture medium. Three days later, limited dilution was carried out to obtain single cell clones in 96-well plates. […]
Human or rat vasopression V1a, V1b, and/or V2 cell-based receptor binding assay. […] Samples were counted in a liquid scintillation counter (Beckman LS3801). IC50 and Ki values were calculated using Prism Curve fitting software. […]

T1 sequence (P37288 whole entry): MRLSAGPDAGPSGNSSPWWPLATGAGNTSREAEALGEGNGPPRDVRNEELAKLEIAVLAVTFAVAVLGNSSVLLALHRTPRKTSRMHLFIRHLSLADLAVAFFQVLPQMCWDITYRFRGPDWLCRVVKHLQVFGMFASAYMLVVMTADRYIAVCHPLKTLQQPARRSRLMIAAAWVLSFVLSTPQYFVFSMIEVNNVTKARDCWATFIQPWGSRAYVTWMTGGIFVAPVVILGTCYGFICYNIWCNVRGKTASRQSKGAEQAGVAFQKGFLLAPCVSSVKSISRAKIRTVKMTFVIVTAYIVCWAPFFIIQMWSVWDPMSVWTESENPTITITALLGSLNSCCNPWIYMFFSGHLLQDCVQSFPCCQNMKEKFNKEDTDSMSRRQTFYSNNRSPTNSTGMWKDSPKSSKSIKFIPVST

Ki ([1]; FIG. 1, competitive binding assay in CHO cells transfected with human V1a receptor, read-out: human V1b binding affinity (Ki)): 0.07 nM | IC50 ([1]; cells expressing human V1a receptor, 1 nM 3H-AVP, read-out: Human V1a Binding Affinity (IC50 (nM))): 0.11 nM | IC50 ([2]; read-out: Human V1b Binding Affinity (IC50 (μM))): 1.1 µM | Ki ([2]; read-out: Human V1b Binding Affinity (Ki (μM))): 0.69 µM
Compound: O=C(C(CSCc1ccccc1)N1C(=O)C(N2C(=O)OCC2c2ccccc2)C1C=Cc1ccccc1)N1CCC(CCN2CCCCC2)CC1 [Example 9B, (2S)-(Benzylthiomethyl)-2-[3(S)-(4(S)-phenyloxazolidin-2-on-3-yl)-4(R)-(2-styryl)azetidin-2-on-1-yl]acetic acid N-[4-[2-(piperid-1-yl)ethyl]piperidin-1-yl]amide]
